The melting point is the temperature, or range, at which the solid turns liquid.

The molecule `CC(=O)N[C@@H]1CCCC[C@H]1Nc1nc(Nc2ccc3c(c2)C(C)(C)CCC(=O)N3)ncc1Cl` yielded a melting point of 227 °C.

Turning to `O=c1oc2c(c(O)c1C(c1ccccc1)C1CC1)CCCCC2Cc1ccccc1` (stereo unspecified), the melting point is 178 to 182 °C.

`O=C(O)C(=O)Nc1cccc([N+](=O)[O-])c1`: the melting point is > 270 °C.

`Cc1ccc(NC(=O)C(F)(F)F)cc1C(F)(F)F` returned a melting point of 72 to 74 °C.

Molecule `CC(=O)C(=Cc1cccc([N+](=O)[O-])c1)P(=O)(OCC(C)C)OCC(C)C` displayed a melting point of 81 to 82 °C.

Molecule `CCC1(c2cccc(OC)c2)CCCC(=O)N(C)C1` (stereo unspecified) showed a melting point of 69 to 71 °C.

In the case of `C=CCN1C2CCC1C1CCC2N1C(c1ccc(C(=O)N(CC)CC)cc1)c1cccc(OC)c1` (stereo unspecified), the melting point lay in the range of 99 to 101 °C.

In the case of `O=C(N[C@H](Cc1ccc(CC(F)(F)C(F)(F)F)cc1)[C@@H](O)c1cccc(Cl)c1)c1ccc(F)c2ccccc12` (racemic), the melting point lay in the range of 191 to 192 °C.

For the molecule `CCCCN(c1nc(N(CC)CC)nc(N(CCCC)C2CC(C)(C)N(OC)C(C)(C)C2)n1)C1CC(C)(C)N(OC)C(C)(C)C1`, the melting point was in the range of 109 to 112 °C.

For `N#CC1CN1C(=O)NC(=O)c1ccc2c(c1)CCCC2` (stereo unspecified), the melting point is 166 to 168 °C.

The molecule `CN1C(=O)CN=C(c2ccccc2F)c2cc(NC(=O)N3CC3)ccc21` registered a melting point of 186 to 190 °C.

For `O=C1OCc2ncccc21`, the melting point lay in the range of 113 to 118 °C.

Regarding `CCN(CC)C(=O)CP(=S)(c1ccccc1)c1ccccc1`, the melting point lay in the range of 108 to 110 °C.

As for `COc1nc(OC)c(C=CC(C)=O)c(OC)n1`, the melting point lay in the range of 98 to 99 °C.

As to `CCCc1csc(/C=C/c2cccc(NCCCC(=O)O)c2)n1`, the melting point lay within 115 to 116 °C.

In the case of `CS(=O)(=O)c1ccc(-c2nc(C(F)(F)F)nc(N=[N+]=[N-])c2-c2ccc(F)cc2)cc1`, the melting point was 285 to 288 °C.

For the molecule `COc1c(Cl)ncnc1OCCc1ccc(Cl)cc1`, the melting point lay in the range of 70 to 71 °C.

`Cc1nc2cc(Oc3cc(-c4ccc(C(F)(F)F)cc4)ccn3)ccc2s1`: the melting point lay within 160 to 164 °C.

On to `Cc1onc(NS(=O)(=O)c2ccccc2)c1Br`, for which the melting point lay in the range of 128 to 130 °C.

For the molecule `COc1cn(-c2ccc(N3CC(F)(F)C(F)(F)C3)cc2F)nc(-c2ccnn2-c2ccccc2)c1=O`, the melting point fell in the range of 175 to 177 °C.

For the molecule `CN1OCCN(c2cc(Cl)cc(Cl)c2)C1=O`, the melting point is 105 to 106 °C.

Molecule `CNCCc1ccc2[nH]c(C)c(C(=O)OCc3ccccc3)c2c1` yielded a melting point of 65 to 68 °C.

As for `CCCCCCCCCCOc1ccc(-c2ccc(C#CCCC(C)O)cc2)cc1` (stereo unspecified), the melting point was in the range of 97 to 99 °C.

`COc1cc2occ(C(=O)Nc3cccnc3)c2cc1C(F)(F)F` gave a melting point of 219 to 221 °C.

As to `CN(C)c1cc(Cl)c(C=O)c(Cl)c1`, the melting point fell in the range of 169 to 171 °C.

As for `CNC(=S)Nc1ccc(Cl)nc1`, the melting point worked out at 164 °C.

Take `Cc1sc(N)c(C(=O)c2ccccn2)c1C`: the melting point lay in the range of 136 to 139 °C.

Regarding `CCOC(=O)C1CC1C(=O)O` (stereo unspecified), the melting point amounted to 46 °C.

With `c1ccc(C(c2ccc3[nH]c(-c4ccccn4)nc3c2)n2ccnc2)cc1` (stereo unspecified), the melting point came to 123 °C.

Molecule `Fc1ccc(N2CCN(Cc3ccc(CCl)cc3)CC2)cc1` returned a melting point of 81 to 83 °C.

For `N#CC1(C#N)CN=C(O)C(c2cc(O)c(O)c([N+](=O)[O-])c2)=N1`, the melting point is > 300 °C.

Molecule `COc1ccc(Br)c(C(=O)NNS(=O)(=O)c2ccccc2)c1` returned a melting point of 150 to 152 °C.

The molecule `Cc1ccc2c(=O)cc(C#N)oc2c1` returned a melting point of 155 to 156 °C.

Turning to `COc1ccc2[nH]cc(CCCN(C3CCC3)C3COc4c(F)ccc(C(N)=O)c4C3)c2c1` (stereo unspecified), the melting point is 151 to 158 °C.

As for `COc1ccc2c(Cl)cc(-c3ccc(Cl)c(Cl)c3)nc2c1`, the melting point was 122 to 131 °C.

As for `O=c1ccc(C(c2ccccc2)c2ccccc2)n[nH]1`, the melting point fell in the range of 161 to 162 °C.

With `CC(C)Oc1ccc2nc(CO)n(C)c2n1`, the melting point lay in the range of 125 to 127 °C.

On to `CCC(CC)O[C@@H]1C=C(C(=O)O)C[C@H](CC(O)CN=[N+]=[N-])[C@H]1NC(C)=O` (stereo partly specified), for which the melting point was 126 to 127 °C.

Take `O=C1O[C@@H](CN2CCC(Cc3ccc(F)cc3)CC2)CN1c1ccc(O)cc1`: the melting point lay in the range of 164 to 165 °C.

The molecule `O=C(CCl)N1CCSC1COc1ccccc1O` (stereo unspecified) gave a melting point of 89 to 91 °C.

The molecule `COc1cc(-c2ccc(N)cn2)cc(OC)c1OC` showed a melting point of 154 to 156 °C.

In turn, `COc1cc(C=C2C(=O)CCc3c2ccc2c3OCO2)c([N+](=O)[O-])cc1OC` returned a melting point of 66 to 68 °C.

Molecule `NS(=O)(=O)c1cccc(NC(=O)c2cnn3c(C(F)F)cc(-c4ccc(C(F)(F)F)c(F)c4)nc23)c1` gave a melting point of 262 °C.

The molecule `O=C(O)c1cc(N2CCCCC2)ccc1[N+](=O)[O-]` had a melting point of 130 to 140 °C.

Molecule `Cc1c(Cl)c(Oc2ncc(C(F)(F)F)cc2Cl)nn1C(=O)NCCCl` displayed a melting point of 112 to 114 °C.

Molecule `CC(=O)C(=NNc1cccc(C(F)(F)F)c1)C(C)=O` displayed a melting point of 108 to 109 °C.

The molecule `Cc1ccc(C)c2oc(CN3CCC[C@@H](OCc4cc(C(F)(F)F)cc(C(F)(F)F)c4)[C@H]3c3ccccc3)nc12` (relative stereo) came in with a melting point of 109 to 110 °C.

Take `O=C(Cl)c1ccncc1`: the melting point stood at 160 °C.

`Cc1ccc(Cl)cc1-c1cc(F)cc2c1O[C@@H](CN)C2` had a melting point of 148 to 150 °C.

`O=C(O)CC1(CC(O)=NO)CCCCC1` displayed a melting point of 104 °C.

Consider `CCn1c(=O)c2c(nc(/C=C/c3cccc(O)c3)n2C)n(CC)c1=O`, for which the melting point was in the range of 250 to 251 °C.

In turn, `CCCCc1ccc(-c2ccc(CCc3ccc(C)cc3)cc2)c(F)c1` yielded a melting point of 41 °C.

With `NNC(=O)C(Cl)c1cccc(Cl)n1` (stereo unspecified), the melting point was in the range of 176 to 177 °C.

On to `CCOC(=O)c1c(-c2ccccc2)c2cc(Cl)ccc2n(C)c1=O`, for which the melting point lay in the range of 124 to 125 °C.

Molecule `CSc1noc(-c2ccc(OCCCc3ccccc3)cc2)c1C#N` displayed a melting point of 99 to 100 °C.

`N#CN=[N+]([O-])c1ccc2c(c1)OCO2` showed a melting point of 145 to 147 °C.

Molecule `CCCC[Si](C)(C)CCSCCCNC(=O)n1cc(F)c(=O)[nH]c1=O` yielded a melting point of 83.5 to 84 °C.

On to `CCCn1c(=O)c2c(NC(C)=O)n[nH]c2n(Cc2ccccc2)c1=O`, for which the melting point lay within 108 to 110 °C.

Molecule `Ic1ccc2c(c1)Sc1ccc(I)cc1S2` came in with a melting point of 169 to 170 °C.

In the case of `CC(C)(C)OC(=O)N[C@@H](Cc1ccccc1Cl)C(=O)NC1CCC(Nc2cccc3c2C(=O)c2ccccc2C3=O)CC1` (stereo partly specified), the melting point was found to be 183 °C.

With `CC(=O)OC1C(CO)OC(n2cnc3c(N)ncnc32)C1OC(C)=O` (stereo unspecified), the melting point fell in the range of 138 to 139 °C.

With `Cn1cc(C2=CC(=O)NC2=O)c2ccccc21`, the melting point is 229 to 231 °C.

In turn, `Nc1ccc(C#Cc2cnn3c(C4CC4)cc(-c4ccc(C(F)(F)F)cc4)nc23)cn1` had a melting point of 228 to 231 °C.

Take `O=[N+]([O-])c1ccc(-c2cc3c(O)ncnc3o2)cc1`: the melting point was > 350 °C.

As for `CC(=O)c1ccc(-c2nc(=O)c3ccccc3s2)cc1`, the melting point came to 198 °C.

On to `NC(=O)c1ccc2c(c1)C1(COc3cc4c(cc31)OCCO4)C(=O)N2Cc1ccccn1` (stereo unspecified), for which the melting point lay within 220 to 222 °C.

In turn, `CN1CCN(C2=Nc3cc(Br)ccc3N3CCc4cc(Br)cc2c43)CC1` returned a melting point of 215 to 216 °C.

The molecule `CCNC(=O)N(C)c1ccc(C(O)(C(F)(F)Cl)C(F)(F)Cl)cc1` gave a melting point of 155 to 157 °C.

As to `CCc1cc([N+](=O)[O-])c(NC(CC)COC)c([N+](=O)[O-])c1COC` (stereo unspecified), the melting point lay within 54 to 55 °C.

Take `CCOC(=O)/C(Cl)=N/Nc1ccc(OC)cc1`: the melting point lay within 87 to 89 °C.

For `CNc1ccc(C(=N)NC(=O)OCc2ccccc2)c(F)c1`, the melting point is 128 to 130 °C.

Consider `CCc1nn(C2CCCC2)c2cc(C(=O)OC)ccc12`, for which the melting point lay within 106 to 109 °C.

As to `CCCCNc1ccc(-c2nc(C(=O)Nc3nccs3)c(-c3cccc(OC)c3)[nH]2)cc1`, the melting point was 228 to 231 °C.

The molecule `Fc1ccc([C@]2(Cn3nc[nH]c3=S)O[C@H]2c2ccccc2Cl)c(F)c1` (racemic) returned a melting point of 180 °C.

`COc1cc(C=C2SC(=O)NC2=O)ccc1OCCN1c2ccccc2Sc2ccccc21` displayed a melting point of 210 to 212 °C.

As to `NC(=O)NCCCC(NC(=O)OCc1ccccc1)C(=O)OCc1ccc([N+](=O)[O-])cc1` (stereo unspecified), the melting point lay within 144 to 146 °C.

`CC(C)(C)NOC(=O)c1n[nH]c2c(=O)[nH]c3cc(Cl)ccc3c(=O)c12` came in with a melting point of 258 °C.

Regarding `CCC(=O)OC1=C(CCCCCCCCC[Si](C)(C)C)C(=O)c2ccccc2C1=O`, the melting point was in the range of 41 to 43 °C.

Consider `COc1cccc2c1CC(n1cc[nH]c1=S)CC2` (stereo unspecified), for which the melting point lay in the range of 249 to 251 °C.

Take `Cc1cc(Cl)cc(C(=O)CC(=O)C2CCCCC2)c1O`: the melting point lay within 76 to 77 °C.

Regarding `CN(C)S(=O)(=O)n1c(N)nc2ccc(C(N)=O)cc21`, the melting point was in the range of 206 to 208 °C.

The molecule `O=C1OC(O)c2c1cccc2[N+](=O)[O-]` (stereo unspecified) gave a melting point of 153 to 156 °C.

In turn, `CC1OC(O)CC(NC(=O)C(F)(F)F)C1C` (stereo unspecified) gave a melting point of 132 to 134 °C.

`N#CCC12CC(c3ccccc31)c1ccccc12`: the melting point fell in the range of 130 to 131 °C.

The molecule `COc1cccc(N2CCN(CCC(O)COc3ccccc3)CC2)c1` (stereo unspecified) returned a melting point of 58 to 60 °C.

`O=c1cc(Oc2ccc([N+](=O)[O-])cc2)cc[nH]1` showed a melting point of 227 to 228 °C.

In turn, `CCCc1c(OC(=O)OCC)ccc2oc(Cc3ccc(OC)cc3)c(C)c12` displayed a melting point of 51 to 53 °C.

Regarding `CC(C)(Oc1ccc(CCNC(=O)C=Cc2ccccc2Cl)cc1)C(=O)O`, the melting point is 145 to 146 °C.

Consider `CCCn1c(=O)c2[nH]c(-c3cc(C)n(CC(=O)Nc4ccc(N(C)C)cc4)n3)nc2n(CCC)c1=O`, for which the melting point was > 300 °C.

With `N=C(Nc1ccc(Cl)c(Cl)c1)Nc1ncccc1OCc1ccccc1`, the melting point is 161 to 162 °C.

Consider `Cc1cc(SC(C)C)c(NC(=O)CCCCCSc2nc3ccccc3s2)c(SC(C)C)n1`, for which the melting point was in the range of 84 to 86 °C.
